Experiments:
Assay in all cases: cells
COLO-800 = assay type: functional, cell-based, Homo sapiens; conditions: Homo sapiens, COLO-800;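 further: growth inhibition of COLO-800 cells, read out with a cell viability assay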
Description: SANGER: Inhibition of human COLO-800 cell growth in a cell viability assay.

K562 = assay type: functional, cell-based, Homo sapiens; conditions: Homo sapiens, K562
Description: SANGER: Inhibition of human K-562 cell growth in a cell viability assay.

NCI-H446 = assay type: functional, cell-based, Homo sapiens; conditions: Homo sapiens, NCI-H446;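 further: growth inhibition of NCI-H446 cells determined by a cell viability assay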
Description: SANGER: Inhibition of human NCI-H446 cell growth in a cell viability assay.

ALL-PO = assay type: functional, cell-based, Homo sapiens; conditions: Homo sapiens, ALL-PO;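 further: growth inhibition of ALL-PO cells, read out by a cell viability assay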
Description: SANGER: Inhibition of human ALL-PO cell growth in a cell viability assay.

NB5 = assay type: functional, cell-based, Homo sapiens; conditions: Homo sapiens, NB5;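 further: growth inhibition of NB5 cells, read out as cell viability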
Description: SANGER: Inhibition of human NB5 cell growth in a cell viability assay.

Becker = assay type: functional, cell-based, Homo sapiens; conditions: Homo sapiens, Becker;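 further: growth inhibition of Becker cells, read out with a cell viability assay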
Description: SANGER: Inhibition of human Becker cell growth in a cell viability assay.

NH-12 = assay type: functional, cell-based, Homo sapiens; conditions: Homo sapiens, NH-12;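 further: growth inhibition of NH-12 cells, read out with a cell viability assay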
Description: SANGER: Inhibition of human NH-12 cell growth in a cell viability assay.

NCI-H209 = assay type: functional, cell-based, Homo sapiens; conditions: Homo sapiens, NCI-H209;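 further: growth inhibition of human NCI-H209 cells, measured by a cell viability assay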
Description: SANGER: Inhibition of human NCI-H209 cell growth in a cell viability assay.

SNU1 = assay type: functional, cell-based, Homo sapiens; conditions: Homo sapiens, SNU1;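 further: growth inhibition of human NCI-SNU-1 cells, measured with a cell viability assay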
Description: SANGER: Inhibition of human NCI-SNU-1 cell growth in a cell viability assay.

HH = assay type: functional, cell-based, Homo sapiens; conditions: Homo sapiens, HH
Description: SANGER: Inhibition of human HH cell growth in a cell viability assay.

RCC10RGB = assay type: functional, cell-based, Homo sapiens; conditions: Homo sapiens, RCC10RGB;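 further: growth inhibition of human RCC10RGB cells, read out by a cell viability assay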
Description: SANGER: Inhibition of human RCC10RGB cell growth in a cell viability assay.

COR-L88 = assay type: functional, cell-based, Homo sapiens; conditions: Homo sapiens, COR-L88;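 further: growth inhibition of COR-L88 cells, read out with a cell viability assay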
Description: SANGER: Inhibition of human COR-L88 cell growth in a cell viability assay.

SJSA-1 = assay type: functional, cell-based, Homo sapiens; conditions: Homo sapiens, SJSA-1;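 further: growth inhibition of human SJSA-1 cells, read out through a cell viability measurement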
Description: SANGER: Inhibition of human SJSA-1 cell growth in a cell viability assay.

HT-144 = assay type: functional, cell-based, Homo sapiens; conditions: Homo sapiens, HT-144
Description: SANGER: Inhibition of human HT-144 cell growth in a cell viability assay.

SW872 = assay type: functional, cell-based, Homo sapiens; conditions: Homo sapiens, SW872;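 further: growth inhibition of SW872 cells, read out by a viability assay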
Description: SANGER: Inhibition of human SW872 cell growth in a cell viability assay.

NCI-H1838 = assay type: functional, cell-based, Homo sapiens; conditions: Homo sapiens, NCI-H1838;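 further: growth inhibition of NCI-H1838 cells, determined with a cell viability readout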
Description: SANGER: Inhibition of human NCI-H1838 cell growth in a cell viability assay.

LB2241-RCC = assay type: functional, cell-based, Homo sapiens; conditions: Homo sapiens, LB2241-RCC;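 further: cell viability assay measuring how strongly the cultured human renal carcinoma line is prevented from growing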
Description: SANGER: Inhibition of human LB2241-RCC cell growth in a cell viability assay.

SBC-1 = assay type: functional, cell-based, Homo sapiens; conditions: Homo sapiens, SBC-1;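 further: cell viability assay measuring growth inhibition of the SBC-1 cell line, IC50 being the concentration that halves growth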
Description: SANGER: Inhibition of human SBC-1 cell growth in a cell viability assay.

GR-ST = assay type: functional, cell-based, Homo sapiens; conditions: Homo sapiens, GR-ST
Description: SANGER: Inhibition of human GR-ST cell growth in a cell viability assay.

NCI-N87 = assay type: functional, cell-based; conditions: Homo sapiens;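 further: growth inhibition of human NCI-N87 cells, read out with a cell viability assay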
Description: SANGER: Inhibition of human NCI-N87 cell growth in a cell viability assay.

KM-H2 = assay type: functional, cell-based, Homo sapiens; conditions: Homo sapiens, KM-H2;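 further: growth inhibition of KM-H2 cells, read out by a cell viability assay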
Description: SANGER: Inhibition of human KM-H2 cell growth in a cell viability assay.

CW-2 = assay type: functional, cell-based, Homo sapiens; conditions: Homo sapiens, CW-2;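 further: growth inhibition of CW-2 cells, read out by a cell viability assay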
Description: SANGER: Inhibition of human CW-2 cell growth in a cell viability assay.

HCE-T = assay type: functional, cell-based, Homo sapiens; conditions: Homo sapiens, HCE-T;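 further: cell viability assay read-out, reporting inhibition of HCE-T cell growth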
Description: SANGER: Inhibition of human HCE-T cell growth in a cell viability assay.

EW-13 = assay type: functional, cell-based, Homo sapiens; conditions: Homo sapiens, EW-13; read-out: IC50;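 further: growth inhibition of EW-13 cells, read out with a cell viability assay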
Description: SANGER: Inhibition of human EW-13 cell growth in a cell viability assay.

LXF-289 cell line = assay type: functional, cell-based; conditions: Homo sapiens
Description: SANGER: Inhibition of human LXF-289 cell growth in a cell viability assay.

COLO-824 = assay type: functional, cell-based, Homo sapiens; conditions: Homo sapiens, COLO-824
Description: SANGER: Inhibition of human COLO-824 cell growth in a cell viability assay.

MHH-NB-11 = assay type: functional, cell-based, Homo sapiens; conditions: Homo sapiens, MHH-NB-11;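 further: growth inhibition of human MHH-NB-11 cells, read out by a cell viability assay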
Description: SANGER: Inhibition of human MHH-NB-11 cell growth in a cell viability assay.

HCC2218 = assay type: functional, cell-based, Homo sapiens; conditions: Homo sapiens, HCC2218;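 further: cell viability assay read-out, with IC50 given as the concentration that inhibits growth of the cell line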
Description: SANGER: Inhibition of human HCC2218 cell growth in a cell viability assay.

HD-MY-Z = assay type: functional, cell-based, Homo sapiens; conditions: Homo sapiens, HD-MY-Z;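 further: growth inhibition of HD-MY-Z cells, read out with a cell viability assay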
Description: SANGER: Inhibition of human HD-MY-Z cell growth in a cell viability assay.

SK-MEL-2 = assay type: functional, cell-based, Homo sapiens; conditions: Homo sapiens, SK-MEL-2;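 further: growth inhibition of human SK-MEL-2 cells measured with a cell viability assay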
Description: SANGER: Inhibition of human SK-MEL-2 cell growth in a cell viability assay.

MSTO-211H = assay type: functional, cell-based, Homo sapiens; conditions: Homo sapiens, MSTO-211H
Description: SANGER: Inhibition of human MSTO-211H cell growth in a cell viability assay.

KNS-42 = assay type: functional, cell-based; conditions: Homo sapiens;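 further: growth inhibition of KNS-42 cells, read out with a cell viability assay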
Description: SANGER: Inhibition of human KNS-42 cell growth in a cell viability assay.

Lu-65 = assay type: functional, cell-based, Homo sapiens; conditions: Homo sapiens, Lu-65;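 further: growth inhibition of Lu-65 cancer cells, read out by a cell viability assay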
Description: SANGER: Inhibition of human LU-65 cell growth in a cell viability assay.

MMAC-SF = assay type: functional, cell-based; conditions: Homo sapiens;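 further: growth inhibition of human MMAC-SF cells, read out with a cell viability assay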
Description: SANGER: Inhibition of human MMAC-SF cell growth in a cell viability assay.

KP-N-YS = assay type: functional, cell-based, Homo sapiens; conditions: Homo sapiens, KP-N-YS;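 further: cell viability assay measuring inhibition of cell line growth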
Description: SANGER: Inhibition of human KP-N-YS cell growth in a cell viability assay.

SNU-5 = assay type: functional, cell-based, Homo sapiens; conditions: Homo sapiens, SNU-5;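 further: cell viability readout used to measure growth inhibition in human NCI-SNU-5 cells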
Description: SANGER: Inhibition of human NCI-SNU-5 cell growth in a cell viability assay.

OMC-1 = assay type: functional, cell-based, Homo sapiens; conditions: Homo sapiens, OMC-1;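 further: growth inhibition of the OMC-1 cell line, measured by a cell viability assay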
Description: SANGER: Inhibition of human OMC-1 cell growth in a cell viability assay.

DB = assay type: functional, cell-based, Homo sapiens; conditions: Homo sapiens, DB
Description: SANGER: Inhibition of human DB cell growth in a cell viability assay.

NCI-H23 = assay type: functional, cell-based, Homo sapiens; conditions: Homo sapiens, NCI-H23;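 further: cell viability assay measuring growth inhibition of NCI-H23 cells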
Description: SANGER: Inhibition of human NCI-H23 cell growth in a cell viability assay.

EW-11 = assay type: functional, cell-based, Homo sapiens; conditions: Homo sapiens, EW-11;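 further: growth inhibition of human EW-11 cells, measured with a cell viability assay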
Description: SANGER: Inhibition of human EW-11 cell growth in a cell viability assay.

CGTH-W-1 = assay type: functional, cell-based, Homo sapiens; conditions: Homo sapiens, CGTH-W-1;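 further: growth inhibition of human CGTH-W-1 cells measured by cell viability assay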
Description: SANGER: Inhibition of human CGTH-W-1 cell growth in a cell viability assay.

MLMA = assay type: functional, cell-based, Homo sapiens; conditions: Homo sapiens, MLMA;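 further: growth inhibition of MLMA cells (human), determined through a cell viability readout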
Description: SANGER: Inhibition of human MLMA cell growth in a cell viability assay.

OS-RC-2 = assay type: functional, cell-based, Homo sapiens; conditions: Homo sapiens, OS-RC-2;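 further: growth inhibition of human OS-RC-2 cells, measured by a cell viability assay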
Description: SANGER: Inhibition of human OS-RC-2 cell growth in a cell viability assay.

ES7 = assay type: functional, cell-based, Homo sapiens; conditions: Homo sapiens, ES7;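 further: growth inhibition of cultured human ES7 cells, read out as cell viability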
Description: SANGER: Inhibition of human ES7 cell growth in a cell viability assay.

SF-268 = assay type: functional, cell-based, Homo sapiens; conditions: Homo sapiens, SF-268;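 further: growth inhibition of SF-268 cells determined with a cell viability assay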
Description: SANGER: Inhibition of human SF268 cell growth in a cell viability assay.

NCI-H747 = assay type: functional, cell-based, Homo sapiens; conditions: Homo sapiens, NCI-H747;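 further: growth inhibition of human NCI-H747 cells, read out by a cell viability assay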
Description: SANGER: Inhibition of human NCI-H747 cell growth in a cell viability assay.

GI-ME-N = assay type: functional, cell-based, Homo sapiens; conditions: Homo sapiens, GI-ME-N;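 further: growth inhibition of human GI-ME-N cells, read out with a cell viability assay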
Description: SANGER: Inhibition of human GI-ME-N cell growth in a cell viability assay.

MPP-89 = assay type: functional, cell-based, Homo sapiens; conditions: Homo sapiens, MPP-89;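 further: growth inhibition of human MPP-89 cells, read out with a cell viability assay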
Description: SANGER: Inhibition of human MPP-89 cell growth in a cell viability assay.

NCI-H1304 = assay type: functional, cell-based, Homo sapiens; conditions: Homo sapiens, NCI-H1304;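 further: growth inhibition of the cancer cell line, measured in a cell viability assay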
Description: SANGER: Inhibition of human NCI-H1304 cell growth in a cell viability assay.

GOTO = assay type: functional, cell-based, Homo sapiens; conditions: Homo sapiens, GOTO;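 further: growth inhibition of GOTO cells, read out by a cell viability assay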
Description: SANGER: Inhibition of human GOTO cell growth in a cell viability assay.

Cc1ccc(C(=O)Nc2ccc(CN3CCN(C)CC3)c(C(F)(F)F)c2)cc1C#Cc1cnc2cccnn12 [PONATINIB]
IC50 (COLO-800): > 512 nM
IC50 (K562): > 512 nM
IC50 (NCI-H446): > 512 nM
IC50 (ALL-PO): 124 nM
IC50 (NB5): > 512 nM
IC50 (Becker): > 512 nM
IC50 (NH-12): > 512 nM
IC50 (NCI-H209): > 512 nM
IC50 (SNU1): > 512 nM
IC50 (HH): > 512 nM
IC50 (RCC10RGB): > 512 nM
IC50 (COR-L88): > 512 nM
IC50 (SJSA-1): > 512 nM
IC50 (HT-144): 313 nM
IC50 (SW872): > 512 nM
IC50 (NCI-H1838): > 512 nM
IC50 (LB2241-RCC): > 512 nM
IC50 (SBC-1): > 512 nM
IC50 (GR-ST): > 512 nM
IC50 (NCI-N87): > 512 nM
IC50 (KM-H2): > 512 nM
IC50 (CW-2): > 512 nM
IC50 (HCE-T): > 512 nM
IC50 (EW-13): > 512 nM
IC50 (LXF-289 cell line): > 512 nM
IC50 (COLO-824): > 512 nM
IC50 (MHH-NB-11): > 512 nM
IC50 (HCC2218): > 512 nM
IC50 (HD-MY-Z): > 512 nM
IC50 (SK-MEL-2): > 512 nM
IC50 (MSTO-211H): > 512 nM
IC50 (KNS-42): > 512 nM
IC50 (Lu-65): > 512 nM
IC50 (MMAC-SF): > 512 nM
IC50 (KP-N-YS): > 512 nM
IC50 (SNU-5): > 512 nM
IC50 (OMC-1): > 512 nM
IC50 (DB): > 512 nM
IC50 (NCI-H23): > 512 nM
IC50 (EW-11): > 512 nM
IC50 (CGTH-W-1): 1.69 nM
IC50 (MLMA): 90.6 nM
IC50 (OS-RC-2): > 512 nM
IC50 (ES7): > 512 nM
IC50 (SF-268): 449 nM
IC50 (NCI-H747): 421 nM
IC50 (GI-ME-N): > 512 nM
IC50 (MPP-89): 169 nM
IC50 (NCI-H1304): > 512 nM
IC50 (GOTO): > 512 nM
